The target of data set [1] is KV11.1 ion channel (hERG) (Homo sapiens, UniProt Q12809). The experiment in a line: Binding to ion channel Kv11.1 (hERG). (In general: hERG is a cardiac potassium channel; its block is linked to QT prolongation.)
The next data set can be described thus: Solubility in PBS pH 7. Type of data set: physicochemical. As to conditions: aqueous buffer; pH 7, PBS.
Data set [2] deals with T1, hGPR40 (Homo sapiens, UniProt O14842). Description: GPR40 Inositol Phosphate Turnover (IP1) Assay. The class given is cell-based. Also on record: expressed in transfected cells; host or cells: HEK cells stably expressing the aequorin reporter.
Method: A human GPR40 stable cell-line was generated in HEK cells stably expressing the aequorin expressing reporter.
The assay is performed in 96-well format. HEK cells stably expressing human GPR^40 are plated to be 60-80% confluent within 72 h. After 72 h, the plates are aspirated and the cells washed with inositol-free DMEM (ICN). The wash media is replaced with 150 μL of 3H-inositol labeling media (inositol-free media containing 0.4% human albumin or 0.4% mouse albumin, 1× pen/strep antibiotics, glutamine, 25 mM HEPES to which is added 3H-myo-inositol NEN #NET114A 1mCi/mL, 25 Ci/mmol diluted 1:150 in loading media with a final specific radioactivity of 1 μCi/150 μL). Alternatively, the human and mouse albumin can be added after the overnight labeling step before the addition of LiCl.
The assay is typically run the next day after 18 h labeling. On the day of the assay, 5 μL, of 300 mM LiCl is added to all wells and incubated at 37 degrees for 20 min. 0.75 μL of 200× compounds are added and incubated with the cells for 60 min at 37 degrees. The media is then aspirated off and the assay terminated with the addition of 60 nI, 10 mM formic acid. The cells are lysed for 60 min at room temperature. 15-30 nI, of lysate is mixed with 70 mL/1 mg YSi SPA beads (Amersham) in clear bottom Isoplates. The plates are shaken for 2 h at room temperature. Beads are allowed to settle and the plates are counted in the Wallac Microbeta.
In data set [3] the target is T1, hGPR40. Description: GPR40 FLIPR assay (agonist-induced calcium mobilization).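 Note: calcium mobilization in the cells read as fluorescence of fluo-4 AM loaded cells on FLIPR after compound addition, cells preloaded with dye 100 min at room temperature.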 Also on record: expressed in transfected cells; host or cells: CHO cells stably expressing NFAT BLA (beta-lactamase). As to conditions: GPR40/CHO NFAT BLA cells. Type of data set: cell-based. (In general: Calcium flux is commonly read through the fluorescence of an indicator in the cells.)
Method: Human and mouse GPR40 stable cell-lines were generated in CHO cells stably expressing NFAT BLA (Beta-lactamase). […] The expression plasmids were transfected using lipofectamine (Life Technologies) following manufacturer's instructions. Stable cell-lines were generated following drug selection.
FLIPR (Fluorimetric Imaging Plate Reader, Molecular Devices) assays were performed to measure agonist-induced calcium mobilization of the stable clones. For the FLIPR assay, one day before assay, GPR40/CHO NFAT BLA cells were seeded into black-wall-clear-bottom 384-well plates (Costar) at 1.4×10e4 cells/20 μL medium/well. The cells were incubated with 20 μl/well of the assay buffer (HBSS, 0.1% BSA, 20 mM HEPES, 2.5 mM probenecid, pH 7.4) containing 8 μM fluo-4, AM, 0.08% pluronic acid at room temperature for 100 minutes. Fluorescence output was measured using FLIPR. Compounds were dissolved in DMSO and diluted to desired concentrations with assay buffer. 13.3 μL/well of compound solution was added.

Where [4] appears, read: +0% human serum (Table A), read-out: Human GPR40 IP1, EC50, +0% human serum.
The mark [5] stands for this setting: +100% human serum (Table A), read-out: Human GPR40 IP1, EC50, +100% human serum.
Where [6] appears, read: HEK cells stably expressing human GPR40, 0% serum, read-out: hGPR40 IP1 EC50 (0% serum).

≈ marks a conversion by molar mass, not a printed value.

T1 sequence (O14842 whole entry): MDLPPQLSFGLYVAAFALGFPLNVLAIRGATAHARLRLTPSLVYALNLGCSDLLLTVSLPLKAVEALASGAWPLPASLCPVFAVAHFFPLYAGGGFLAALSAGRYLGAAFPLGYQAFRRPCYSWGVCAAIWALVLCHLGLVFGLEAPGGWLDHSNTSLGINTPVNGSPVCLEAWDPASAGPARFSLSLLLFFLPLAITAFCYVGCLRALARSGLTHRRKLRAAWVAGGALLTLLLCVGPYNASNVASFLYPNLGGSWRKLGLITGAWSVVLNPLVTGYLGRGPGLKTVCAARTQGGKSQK
Sequence of KV11.1 ion channel (hERG) (Q12809 whole entry): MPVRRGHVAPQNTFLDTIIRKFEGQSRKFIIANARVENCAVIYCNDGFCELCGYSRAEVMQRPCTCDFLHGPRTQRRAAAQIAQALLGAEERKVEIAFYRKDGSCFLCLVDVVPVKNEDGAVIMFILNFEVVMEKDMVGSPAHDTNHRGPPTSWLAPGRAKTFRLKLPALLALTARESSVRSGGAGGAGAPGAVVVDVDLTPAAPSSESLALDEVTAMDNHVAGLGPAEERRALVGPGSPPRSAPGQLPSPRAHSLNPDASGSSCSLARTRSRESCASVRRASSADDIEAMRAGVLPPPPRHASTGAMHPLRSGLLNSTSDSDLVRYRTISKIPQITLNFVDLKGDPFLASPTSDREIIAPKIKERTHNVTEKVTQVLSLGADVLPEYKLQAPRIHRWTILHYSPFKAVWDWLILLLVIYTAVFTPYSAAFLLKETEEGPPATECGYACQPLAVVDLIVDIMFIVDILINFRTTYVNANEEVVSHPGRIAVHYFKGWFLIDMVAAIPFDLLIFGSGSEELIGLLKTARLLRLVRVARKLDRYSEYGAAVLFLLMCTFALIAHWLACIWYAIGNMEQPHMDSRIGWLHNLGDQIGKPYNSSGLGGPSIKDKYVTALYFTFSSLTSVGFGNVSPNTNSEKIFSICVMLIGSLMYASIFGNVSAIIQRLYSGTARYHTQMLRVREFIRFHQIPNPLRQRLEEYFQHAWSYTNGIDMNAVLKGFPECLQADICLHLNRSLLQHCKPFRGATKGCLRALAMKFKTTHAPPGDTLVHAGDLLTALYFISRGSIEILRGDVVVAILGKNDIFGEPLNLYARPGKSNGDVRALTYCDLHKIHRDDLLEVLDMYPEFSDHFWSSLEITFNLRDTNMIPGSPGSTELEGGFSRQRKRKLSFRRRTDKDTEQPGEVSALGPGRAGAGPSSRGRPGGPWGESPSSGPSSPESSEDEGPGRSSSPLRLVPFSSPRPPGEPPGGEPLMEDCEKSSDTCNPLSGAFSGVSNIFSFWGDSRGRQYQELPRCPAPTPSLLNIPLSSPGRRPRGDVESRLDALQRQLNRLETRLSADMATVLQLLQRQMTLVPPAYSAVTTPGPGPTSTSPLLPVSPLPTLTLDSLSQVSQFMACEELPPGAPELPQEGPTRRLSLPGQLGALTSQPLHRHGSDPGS

In turn, `Cc1cc(OCC2(C)COC2)cc(C)c1-c1ccc(F)c(COc2cc3c(cn2)[C@H]2[C@@H](C3)[C@@H]2C(=O)O)c1` (single isomer, unassigned) [Compound A-3] returned a Ki in data set [1] of 40200 nM. The same compound yielded a solubility in “Solubility in PBS pH 7” of 107 µM (≈ 53.9 µg/mL). Also, the EC50 is 9 nM on hGPR40 [2] (setting [4]) and 81 nM on hGPR40 [2] (setting [5]).

`Cc1cc(CCCC(C)(C)O)cc(C)c1-c1ccc(F)c(COc2cc3c(cn2)[C@H]2[C@@H](C3)[C@@H]2C(=O)O)c1` (single isomer, unassigned) [Compound A-4] had a Ki in data set [1] of 7500 nM. Further, in the data set “Solubility in PBS pH 7”, the concentration in solution (solubility) came to 143 µM (≈ 72 µg/mL). Besides, the results for the concentration giving a half-maximal response (EC50) on hGPR40 [2] (setting [4]) and at hGPR40 [2] (setting [5]) were 5 nM and 124 nM, respectively.

`Cc1cc(OCC2(C)COC2)cc(C)c1-c1ccc(F)c(COc2ccc3c(c2)C[C@H]2[C@H](C(=O)O)[C@@H]32)c1` [Compound B-3, reference compound] had a Ki in data set [1] of 7800 nM. Further, in “Solubility in PBS pH 7”, the concentration in solution (solubility) was 49 µM (≈ 24.6 µg/mL). The EC50 on hGPR40 [2] (setting [4]) was 31 nM; at hGPR40 [2] (setting [5]), 286 nM.

The compound `Cc1cccc(C)c1-c1cccc(COc2cc3c(cn2)[C@H]2[C@@H](C3)[C@@H]2C(=O)O)c1C` [Compound A-1] registered a Ki in data set [1] of 40000 nM. In “Solubility in PBS pH 7”, this compound yielded a solubility of 73 µM (≈ 29.2 µg/mL). Moreover, the EC50 is 6 nM on hGPR40 [2] (setting [4]) and 81 nM on hGPR40 [2] (setting [5]).

Compound `Cc1cc(OCC2(C)COC2)cc(C)c1-c1cccc(COc2ccc3c(c2)C[C@H]2[C@H](C(=O)O)[C@@H]32)c1` [Compound B-2, reference compound] displayed an inhibition constant (Ki) in data set [1] of 8600 nM. The compound further came in with a solubility in “Solubility in PBS pH 7” of 21 µM (≈ 10.2 µg/mL). Further, the EC50 amounted to 70 nM at hGPR40 [2] (setting [4]) and 816 nM at hGPR40 [2] (setting [5]).

The compound `Cc1cccc(C)c1-c1cccc(COc2ccc3c(c2)C[C@H]2[C@H](C(=O)O)[C@@H]32)c1C` [Compound B-1, reference compound] returned a Ki in data set [1] of 6000 nM. The compound further registered a solubility in “Solubility in PBS pH 7” of 56 µM (≈ 22.3 µg/mL). Also, the EC50 came to 69 nM on hGPR40 [2] (setting [4]) and 322 nM on hGPR40 [2] (setting [5]).

With `Cc1cc(OCC2(C)COC2)cc(C)c1-c1cccc(COc2cc3c(cn2)[C@H]2[C@@H](C3)[C@@H]2C(=O)O)c1` (single isomer, unassigned) [Compound A-2], the concentration in solution in “Solubility in PBS pH 7” (solubility) was 118 µM (≈ 57.3 µg/mL). Further, the EC50 turned out to be 18 nM on hGPR40 [2] (setting [4]) and 199 nM at hGPR40 [2] (setting [5]).

`Cc1cc(CCCC(C)(C)O)cc(C)c1-c1ccc(F)c(COc2ccc3c(c2)C[C@H]2[C@H](C(=O)O)[C@@H]32)c1` [Compound B-4, reference compound] came in with a solubility in the data set “Solubility in PBS pH 7” of 66 µM (≈ 33.2 µg/mL). The EC50 at hGPR40 [2] (setting [4]) is 100 nM; at hGPR40 [2] (setting [5]), 348 nM.

Regarding `Cc1nc(OC2CCC(C(C)(C)O)CC2)ccc1-c1ccc(F)c(COc2cc3c(cn2)[C@H]2[C@@H](C3)[C@@H]2C(=O)O)c1` (stereo partly drawn) [Compound 20-8, (5aR,6S,6aS)-3-((2-fluoro-5-(6-((4-(2-hydroxypropan-2-yl)cyclohexyl)oxy)-2-methyl-pyridin-3-yl)benzyl)oxy)-5,5a, 6,6a-tetrahydro-cyclopropa[4,5] cyclopenta[1,2-c] pyridine-6-carboxylic acid], the figures for the EC50 at hGPR40 [3] and at hGPR40 [2] (setting [6]) were 99 nM and 175 nM, respectively.

As to `CS(=O)(=O)CCCOc1ccc(-c2ccc(F)c(COc3cc4c(cn3)C3C(C4)C3C(=O)O)c2)c(C(F)(F)F)c1` (stereo not drawn) [Compound 10-9, 3-((4-fluoro-4′-(3-(methyl-sulfonyl)propoxy)-2′-(trifluoromethyl)-[1,1′-biphenyl]-3-yl)methoxy)-5,5a,6,6a-tetrahydrocyclo-propa[4,5] cyclopenta[1,2-c] pyridine-6-carboxylic acid], the figures for the EC50 at hGPR40 [3] and at hGPR40 [2] (setting [6]) were 43 nM and 8.7 nM, respectively.

In the case of `Cc1cccc(C)c1-c1cccc(COc2cc3c(cn2)C2[C@@H](C3)[C@@H]2C(=O)O)c1C` (stereo partly drawn) [Compound 27-5, 4-(2,2′,6′-Trimethyl-biphenyl-3-ylmethoxy)-1,1a,6,6a-tetrahydro-3-aza-cyclopropa[a]indene-1-carboxylic acid], the figures for the EC50 at hGPR40 [3] and on hGPR40 [2] (setting [6]) were 8.1 nM and 6.7 nM, respectively.

The Ki is the equilibrium dissociation constant of an inhibitor or competing ligand from its target. A higher Ki goes with a looser hold on the target. As usually defined, the solubility is the concentration that dissolves in the medium under given conditions. A higher solubility goes with a readily soluble substance. The EC50 is the midpoint of the concentration-response curve.

These data come from US20140045746A1 (Merck Sharp & Dohme Corp., priority 2012, published 2014).
